The results in this text go back to patent publication US20250221966A1, “RXFP1 AGONISTS” (BRISTOL-MYERS SQUIBB COMPANY, priority 2021, published 2025).

Counter-ions that a name gives are not always drawn.

One may read the EC50 as the concentration giving half of the maximal effect.

The target in the experiment is T1, human RXFP1 (Homo sapiens, UniProt Q9HBX9).
T1 construct: expressed in transfected cells
T1 sequence (Q9HBX9 1-757): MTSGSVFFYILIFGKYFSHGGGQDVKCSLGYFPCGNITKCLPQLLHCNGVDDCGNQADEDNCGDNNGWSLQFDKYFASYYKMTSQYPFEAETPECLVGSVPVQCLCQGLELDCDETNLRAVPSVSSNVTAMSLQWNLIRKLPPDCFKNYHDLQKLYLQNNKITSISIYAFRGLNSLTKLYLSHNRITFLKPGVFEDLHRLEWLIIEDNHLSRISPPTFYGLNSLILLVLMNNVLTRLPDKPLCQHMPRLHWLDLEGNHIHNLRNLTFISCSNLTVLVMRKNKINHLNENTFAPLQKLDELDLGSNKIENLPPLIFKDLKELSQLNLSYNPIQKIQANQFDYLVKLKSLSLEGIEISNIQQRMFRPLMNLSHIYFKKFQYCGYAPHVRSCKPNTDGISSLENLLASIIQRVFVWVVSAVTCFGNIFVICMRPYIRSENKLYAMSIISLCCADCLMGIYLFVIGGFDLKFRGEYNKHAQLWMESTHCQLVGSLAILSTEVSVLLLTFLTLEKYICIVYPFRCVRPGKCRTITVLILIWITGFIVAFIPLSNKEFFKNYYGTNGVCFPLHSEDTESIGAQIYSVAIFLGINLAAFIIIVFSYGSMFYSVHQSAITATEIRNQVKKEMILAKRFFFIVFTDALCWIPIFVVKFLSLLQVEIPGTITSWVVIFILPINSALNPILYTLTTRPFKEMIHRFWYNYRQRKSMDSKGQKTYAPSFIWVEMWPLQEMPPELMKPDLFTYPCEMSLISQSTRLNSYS
Description: RXFP1 cAMP assay (hRXFP1 HEK293 cAMP assay, HTRF). Type of experiment: cell-based. Conditions: HEK293 cells stably expressing human RXFP1, 30 min at room temperature, read-out: cAMP hRXFP1 HEK293 Assay EC50. In a few lines:
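In a stable human RXFP1 HEK293 line, compounds acted for 30 min at RT in buffer with 0.5 mM IBMX. HTRF then quantified cellular cAMP.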
(Changes in cAMP serve as a functional read-out for many G protein-coupled receptors.)
As for `COc1ccc(C2=NOC3COCC23)cc1C(=O)N[C@H]1[C@@H](C(=O)NCCc2ccccc2C)[C@H]2CC[C@@H]1/C2=C\C1CC1` (stereo partly shown) [compound 520], the EC50 was determined as 19.3 nM.
The same measure for `COc1ccc(C2=NOC3CC(O)(C(F)(F)F)CC23)cc1C(=O)N[C@H]1[C@@H](C(=O)NCC(C)(C)C)[C@H]2CC[C@@H]1/C2=C\C1CC1` (stereo partly shown) [compound 862]: 3.4 nM.
The same measure for `COc1ccc(C2=NO[C@H]3C[C@H](CO)C[C@@H]23)cc1C(=O)N[C@H]1[C@@H](C(=O)Nc2ccc(F)c(C(F)(F)F)c2)[C@H]2CC[C@@H]1/C2=C\CC(O)C(F)(F)F` (stereo partly shown) [compound 820]: 2.4 nM; for `COc1ccc(C2=NO[C@H]3C[C@H](CO)C[C@@H]23)cc1C(=O)N[C@H]1[C@@H](C(=O)N[C@H](C)C2(C)CC2)[C@H]2CC[C@@H]1/C2=C\C1CCCC1` [compound 817]: 1.9 nM; for `COc1ccc(-c2ccc(N3CCOCC3)c(C(=O)O)c2)cc1C(=O)N[C@H]1[C@@H](C(=O)Nc2ccc(F)c(C(F)(F)F)c2)[C@H]2CC[C@@H]1/C2=C\C1CC1` [Example 249, 3′-(((1R,2R,3S,4R,Z)-7-(cyclopropylmethylene)-3-((4-fluoro-3-(trifluoromethyl)phenyl)carbamoyl)bicyclo[2.2.1]heptan-2-yl)carbamoyl)-4′-methoxy-4-morpholino-[1,1′-biphenyl]-3-carboxylic acid, TFA]: 5 nM.
The value for `COc1ccc(C2=NOC3COCC23)cc1C(=O)N[C@H]1[C@@H](C(=O)NCc2ccccc2C)[C@H]2CC[C@@H]1/C2=C\C1CC1` (stereo partly shown) [compound 585] was 78.3 nM; that for `COc1ccc(C2=NOC3CN(CCO)CC23)cc1C(=O)N[C@H]1[C@@H](C(=O)Nc2ccc(F)c(C(F)(F)F)c2)[C@H]2CC[C@@H]1/C2=C\C1CC1` (single isomer, unassigned) [compound 691] was 735 nM; that for `COc1ccc(C2=NO[C@H]3C[C@H](CO)C[C@@H]23)cc1C(=O)N[C@H]1[C@@H](C(=O)Nc2ccc(F)c(C(F)(F)F)c2)[C@H]2CC[C@@H]1/C2=C\CC(O)C(F)(F)F` (stereo partly shown) [compound 826] was 3 nM.
As to `COc1ccc(C2=NOC(C(=O)O)C2)cc1C(=O)N[C@@H]1C2CCC(/C2=C/C2CCC2)[C@@H]1C(=O)Nc1ccc(F)c(C(F)(F)F)c1` (stereo partly shown) [compound 388], the EC50 is 152 nM.
For the molecule `COc1ccc(-c2cc(C(COC(=O)Nc3ccccc3)C(F)(F)F)ccc2F)cc1C(=O)N[C@H]1[C@@H](C(=O)Nc2ccc(F)c(C(F)(F)F)c2)[C@H]2CC[C@@H]1/C2=C\C1CC1` (stereo partly shown) [compound 876], the EC50 amounted to 0.9 nM.
The same measure for `COc1c(F)cc(C2=NOC3CC(CO)CC23)cc1C(=O)N[C@H]1[C@@H](C(=O)N[C@H](C)C2(C)CC2(F)F)[C@H]2CC[C@@H]1/C2=C\C1CC1` (stereo partly shown) [compound 756]: 0.4 nM; for `COc1ccc(C2=NC[C@H]3CCCN23)cc1C(=O)N[C@H]1[C@@H](C(=O)Nc2ccc(F)c(C(F)(F)F)c2)[C@H]2CC[C@@H]1/C2=C\C1CC1` [Example 699]: 1030 nM.
The same measure for `CCC(CC)CNC(=O)[C@@H]1[C@H](NC(=O)c2cc(C3=NOC4COCC34)ccc2OC)[C@@H]2CC[C@H]1/C2=C/C1CC1` (stereo partly shown) [compound 553]: 37.4 nM.
The same measure for `COc1ccc(C2=NOC3CC(CO)CC23)cc1C(=O)N[C@H]1[C@@H](C(=O)Nc2ccc(F)c(C(F)(F)F)c2)[C@H]2CC[C@@H]1/C2=C\c1ccncn1` (stereo partly shown) [compound 809]: 4.6 nM.
For `COc1ccc(C2=NOC3COCC23)cc1C(=O)N[C@H]1[C@@H](C(=O)NCC2CC(F)(F)C2)[C@H]2CC[C@@H]1/C2=C\C1CC1` (stereo partly shown) [compound 621], the EC50 came to 164 nM.
The value for `COc1ccc(C2=NO[C@H]3CC(CO)C[C@@H]23)cc1C(=O)N[C@H]1[C@@H](C(=O)Nc2ccc(F)c(C(F)(F)F)c2)[C@H]2CC[C@@H]1/C2=C\CCC(F)(F)F` (stereo partly shown) [compound 825] was 2.9 nM; that for `COc1cc(F)c(F)cc1C(=O)N[C@@H]1C2CCC(/C2=C/c2ccc(C#N)cc2)[C@@H]1C(=O)Nc1ccc(F)c(C(F)(F)F)c1` (stereo partly shown) [compound 62] was 710 nM; that for `COc1ccc(-c2cc(C(=O)O)ccc2F)cc1C(=O)N[C@H]1[C@@H](C(=O)Nc2ccc(C)c(C(F)(F)F)c2)[C@H]2CC[C@@H]1/C2=C\C1CC1` [Example 265, 3′-(((1R,2R,3S,4R,Z)-7-(cyclopropylmethylene)-3-((4-methyl-3-(trifluoromethyl)phenyl)carbamoyl)bicyclo[2.2.1]heptan-2-yl)carbamoyl)-6-fluoro-4′-methoxy-[1,1′-biphenyl]-3-carboxylic acid] was 5 nM.
The same measure for `COc1ccc(C2=NOC3COCC23)cc1C(=O)N[C@H]1[C@@H](C(=O)NCC2(c3ccccc3)CC2)[C@H]2CC[C@@H]1/C2=C\C1CC1` (stereo partly shown) [compound 572]: 66.4 nM.
With `COc1ccc(C2=NOC(CC(=O)O)C2)cc1C(=O)N[C@@H]1C2CCC(/C2=C/C2CC2)[C@@H]1C(=O)Nc1ccc(F)c(C(F)(F)F)c1` (stereo partly shown) [compound 391], the EC50 stood at 49 nM.
The value for `COc1ccc(C2=NOC3COCC23)cc1C(=O)N[C@@H]1C2CCC(/C2=C/C2CCC2)[C@@H]1C(=O)Nc1ccc(F)c(C(F)(F)F)c1` (single isomer, unassigned) [Example 416] was 1 nM.
As for `COc1ccc(C2=NOC3CC(CO)CC23)cc1C(=O)N[C@H]1[C@@H](C(=O)Nc2ccc(F)c(C(F)(F)F)c2)[C@H]2CC[C@@H]1C2CC1CCC1` (stereo partly shown) [compound 523], the EC50 stood at 21.3 nM.
The value for `COc1ccc(C2=NOC(C(C)O)C2)cc1C(=O)N[C@H]1[C@@H](C(=O)Nc2ccc(F)c(C(F)(F)F)c2)[C@H]2CC[C@@H]1/C2=C\C1CC1` (single isomer, unassigned) [compound 554] was 37.6 nM; that for `COc1c(F)cc(C2=NOC3CC(CO)CC23)cc1C(=O)N[C@H]1[C@@H](C(=O)N[C@H](C)C2(C)CC2)[C@H]2CC[C@@H]1/C2=C\C1CCCC1` (stereo partly shown) [compound 811] was 0.6 nM.
The value for `COc1ccccc1NC(=O)OC(c1ccc(F)c(-c2ccc(OC)c(C(=O)N[C@@H]3C4CCC(/C4=C/C4CC4)[C@@H]3C(=O)Nc3ccc(F)c(C(F)(F)F)c3)c2)c1)C(F)(F)F` (stereo partly shown) [compound 225] was 3 nM; that for `CN(C)c1ccc(C2=NOC3COCC23)cc1C(=O)N[C@H]1[C@@H](C(=O)Nc2ccc(F)c(C(F)(F)F)c2)[C@H]2CC[C@@H]1/C2=C\C(F)(F)F` (single isomer, unassigned) [compound 518] was 18.4 nM; that for `COc1ccc(-c2cc([C@H](O)C(F)(F)F)ccc2F)cc1C(=O)N[C@H]1[C@@H](C(=O)Nc2ccc(F)c(C(F)(F)F)c2)[C@H]2CC[C@@H]1/C2=C\C1CCCC1` [compound 920] was 2.4 nM.
The same measure for `COc1c(F)cc(C2=NOC3CC(CO)CC23)cc1C(=O)N[C@H]1[C@@H](C(=O)NC23CC(C#N)(C2)C3)[C@H]2CC[C@@H]1/C2=C\C1CC1` (stereo partly shown) [compound 775]: 4.4 nM; for `COc1ccc(-c2cc(C(=O)N3CC[C@H](O)C3)on2)cc1C(=O)N[C@H]1[C@@H](C(=O)Nc2ccc(F)c(C(F)(F)F)c2)[C@H]2CC[C@@H]1/C2=C\C1CC1` [compound 640]: 214 nM; for `COc1ccc(-c2cccnc2F)cc1C(=O)N[C@H]1[C@@H](C(=O)Nc2ccc(F)c(C(F)(F)F)c2)[C@H]2CC[C@@H]1/C2=C\c1ccccc1` [compound 82]: 41 nM.
As for `COc1ccc(-c2cc(C(OC(=O)NC3CCC3)C(=O)O)ccc2F)cc1C(=O)N[C@H]1[C@@H](C(=O)Nc2ccc(F)c(C(F)(F)F)c2)[C@H]2CC[C@@H]1/C2=C\C(C)C` (stereo partly shown) [compound 938], the EC50 turned out to be 1.7 nM.
The value for `COCC1(NC(=O)[C@@H]2[C@H](NC(=O)c3cc(C4=NOC5COCC45)ccc3OC)[C@@H]3CC[C@H]2/C3=C/C2CC2)CCCC1` (stereo partly shown) [compound 632] was 190 nM.
The same measure for `COc1ccc(-c2cc(C(=O)O)ccc2F)cc1C(=O)N[C@@H]1C2CCC(/C2=C/C2CC2)[C@@H]1C(=O)Nc1ccc(F)c(F)c1F` (stereo partly shown) [compound 305]: 1380 nM; for `COc1ccc(C2=NOC3(CO)CCC23CO)cc1C(=O)N[C@H]1[C@@H](C(=O)Nc2ccc(F)c(C(F)(F)F)c2)[C@H]2CC[C@@H]1/C2=C\C1CC1` (single isomer, unassigned) [Example 461]: 2.6 nM; for `COc1ccc(-c2cc([C@H](OC(=O)NC3CC3)C(F)(F)F)ccc2F)cc1C(=O)N[C@H]1[C@@H](C(=O)Nc2ccc(F)c(C(F)(F)F)c2)[C@H]2CC[C@@H]1/C2=C\C1CC(F)(F)C1` [compound 931]: 2.5 nM.
Consider `COc1ccc(C2=NOC3COCC23)cc1C(=O)N[C@H]1[C@@H](C(=O)Nc2cc(OC(F)(F)F)ccc2F)[C@H]2CC[C@@H]1/C2=C\C1CC1` (stereo partly shown) [compound 762], for which the EC50 was 2 nM.
The same measure for `COc1ccc(-c2cc(C(NC(=O)Cc3ccccc3)C(=O)O)ccc2F)cc1C(=O)N[C@@H]1C2CCC(/C2=C/C(F)(F)F)[C@@H]1C(=O)Nc1ccc(F)c(C(F)(F)F)c1` (stereo partly shown) [compound 240]: 1 nM.
